Data from ChEMBL document CHEMBL1201862, “PubChem BioAssay data set” (2004).
Calls of active or inactive are those of the source.

Key:
[1] = molecular target: Melanin-concentrating hormone receptor 1 (Homo sapiens, UniProt Q99705); assay: Late-stage fluorescence-based counterscreen for antagonists of the G-protein coupled receptor 7 (GPR7): cell-based dose response assay to identify antagonists of the melanin-concentrating hormone receptor 1 (MCHR1) Set 6.; assay type: functional
[2] = molecular target: T1, Neuropeptides B/W receptor type 1 (Homo sapiens, UniProt P48145); assay: human NPBW1 receptor blockade, IC50 – cell-based, fluorescence, dose response, set 6, late-stage follow-up (AID 588583); assay type: functional
T1 sequence (P48145 whole entry): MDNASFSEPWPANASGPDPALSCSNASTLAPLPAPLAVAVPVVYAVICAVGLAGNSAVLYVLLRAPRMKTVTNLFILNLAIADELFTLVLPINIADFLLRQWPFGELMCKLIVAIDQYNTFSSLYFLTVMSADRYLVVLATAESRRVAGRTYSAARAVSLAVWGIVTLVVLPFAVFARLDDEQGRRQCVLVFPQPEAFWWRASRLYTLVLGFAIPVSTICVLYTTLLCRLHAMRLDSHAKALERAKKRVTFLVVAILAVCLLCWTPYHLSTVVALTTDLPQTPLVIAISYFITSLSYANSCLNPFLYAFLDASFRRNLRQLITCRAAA

[3] = molecular target: Dual specificity protein kinase CLK1 (Homo sapiens, UniProt P49759); assay: inhibition of human CLK1 activity – biochemical, cherry-picked samples, selectivity assay for Dyrk1A inhibitor project, dose response (AID 588811)
Dual specificity protein kinase CLK1, sequence (P49759 whole entry): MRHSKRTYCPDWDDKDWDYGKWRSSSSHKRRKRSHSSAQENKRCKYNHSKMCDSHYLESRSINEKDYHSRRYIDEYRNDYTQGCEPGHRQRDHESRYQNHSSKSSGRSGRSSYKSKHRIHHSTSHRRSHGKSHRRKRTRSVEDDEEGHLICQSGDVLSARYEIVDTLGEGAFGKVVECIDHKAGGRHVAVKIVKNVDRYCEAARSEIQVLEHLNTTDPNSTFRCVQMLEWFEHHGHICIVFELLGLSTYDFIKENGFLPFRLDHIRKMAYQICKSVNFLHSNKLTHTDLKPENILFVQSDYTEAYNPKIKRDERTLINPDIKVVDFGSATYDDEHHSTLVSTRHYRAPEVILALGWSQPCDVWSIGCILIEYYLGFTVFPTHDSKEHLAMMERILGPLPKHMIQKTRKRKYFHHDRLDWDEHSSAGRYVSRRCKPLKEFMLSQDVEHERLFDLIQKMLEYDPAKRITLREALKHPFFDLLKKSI

[4] = molecular target: Dual specificity tyrosine-phosphorylation-regulated kinase 1A (Rattus norvegicus, UniProt Q63470); assay type: biochemical, Homo sapiens
Aurora kinase A = Aurora kinase A (Homo sapiens, UniProt O14965); assay type: functional;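 further: value from the Navigating the Kinome kinase panel profiling, panel entry STK6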
Aurora kinase A, sequence (O14965 whole entry): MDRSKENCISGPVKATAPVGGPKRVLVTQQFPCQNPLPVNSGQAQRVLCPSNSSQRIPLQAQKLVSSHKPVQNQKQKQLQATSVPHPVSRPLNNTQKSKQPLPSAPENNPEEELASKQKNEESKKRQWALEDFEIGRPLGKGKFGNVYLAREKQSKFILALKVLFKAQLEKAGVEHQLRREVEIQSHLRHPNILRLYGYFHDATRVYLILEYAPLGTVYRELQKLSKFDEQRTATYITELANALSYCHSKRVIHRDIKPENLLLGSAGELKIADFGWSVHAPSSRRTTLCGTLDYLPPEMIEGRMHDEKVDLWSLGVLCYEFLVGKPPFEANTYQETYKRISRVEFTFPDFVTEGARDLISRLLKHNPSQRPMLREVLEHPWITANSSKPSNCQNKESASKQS

Aurora kinase B = Aurora kinase B (Homo sapiens, UniProt Q96GD4); assay type: functional
Aurora kinase B, sequence (Q96GD4 whole entry): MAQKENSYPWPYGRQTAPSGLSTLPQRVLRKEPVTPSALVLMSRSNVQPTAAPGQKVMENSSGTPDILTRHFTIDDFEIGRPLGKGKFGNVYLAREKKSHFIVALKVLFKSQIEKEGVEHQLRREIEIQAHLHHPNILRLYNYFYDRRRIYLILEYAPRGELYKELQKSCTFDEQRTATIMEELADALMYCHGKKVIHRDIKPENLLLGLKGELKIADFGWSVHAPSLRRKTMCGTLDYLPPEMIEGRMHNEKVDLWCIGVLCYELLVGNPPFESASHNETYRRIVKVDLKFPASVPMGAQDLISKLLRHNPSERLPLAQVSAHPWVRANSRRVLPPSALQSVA

Melanocortin receptor 4 = Melanocortin receptor 4 (Homo sapiens, UniProt P32245); assay: inhibitors of MC4R cAMP signaling – cell-based, TR-FRET, biased antagonists, dose response (AID 602298); assay type: functional;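 further: antagonist potency against agonist-stimulated cAMP production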
Melanocortin receptor 4, sequence (P32245 whole entry): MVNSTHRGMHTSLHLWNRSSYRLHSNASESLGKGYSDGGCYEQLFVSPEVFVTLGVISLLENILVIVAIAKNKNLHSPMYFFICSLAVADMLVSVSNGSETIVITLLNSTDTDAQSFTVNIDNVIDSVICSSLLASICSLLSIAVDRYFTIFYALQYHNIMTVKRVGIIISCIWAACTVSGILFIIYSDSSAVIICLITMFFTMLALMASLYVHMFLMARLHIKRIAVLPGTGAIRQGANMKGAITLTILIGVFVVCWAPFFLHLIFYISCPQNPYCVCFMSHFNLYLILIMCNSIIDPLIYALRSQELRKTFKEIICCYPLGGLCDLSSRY

[5] = cAMP pathway inhibition in counterscreen cell line – TR-FRET cAMP detection, counter-screen for MC4R biased antagonist project, dose response (AID 602305); assay type: functional, cell-based;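 further: U2OS cells stimulated with forskolin near its EC80 as the cAMP inducer; potency is for inhibition of forskolin-stimulated cAMP signaling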
Trypsin = Trypsin (Sus scrofa, UniProt P00761); assay: trypsin protease activity blockade – biochemical, quenched peptide fluorescence, cherry-pick, selectivity assay for Rce1 protease inhibitor project, dose response (AID 488789)
Trypsin, sequence (P00761 whole entry): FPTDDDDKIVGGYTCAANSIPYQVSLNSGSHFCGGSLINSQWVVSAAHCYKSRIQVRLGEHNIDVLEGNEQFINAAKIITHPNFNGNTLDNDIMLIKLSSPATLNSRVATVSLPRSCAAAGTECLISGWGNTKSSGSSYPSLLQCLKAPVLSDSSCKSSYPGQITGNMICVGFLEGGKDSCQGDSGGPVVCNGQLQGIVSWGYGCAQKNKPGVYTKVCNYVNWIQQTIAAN

CAAX prenyl protease 2 = CAAX prenyl protease 2 (Homo sapiens, UniProt Q9Y256); assay: inhibition of Ras-converting CAAX protease Rce1 – biochemical, yeast membranes, quenched-peptide fluorescence, cherry-pick, dose response (AID 588849)
CAAX prenyl protease 2, sequence (Q9Y256 whole entry): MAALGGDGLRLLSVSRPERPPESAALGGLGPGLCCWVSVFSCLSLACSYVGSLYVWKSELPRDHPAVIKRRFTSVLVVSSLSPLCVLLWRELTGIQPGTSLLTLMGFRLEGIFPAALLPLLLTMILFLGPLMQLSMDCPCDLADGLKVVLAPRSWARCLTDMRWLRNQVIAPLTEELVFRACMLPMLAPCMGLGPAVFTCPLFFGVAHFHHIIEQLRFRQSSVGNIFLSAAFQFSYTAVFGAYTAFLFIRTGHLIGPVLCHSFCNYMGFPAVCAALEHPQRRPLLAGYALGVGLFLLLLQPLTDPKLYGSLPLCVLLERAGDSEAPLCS

[6] = molecular target: Glyceraldehyde-3-phosphate dehydrogenase (Homo sapiens, UniProt P04406)
Glyceraldehyde-3-phosphate dehydrogenase, sequence (P04406 whole entry): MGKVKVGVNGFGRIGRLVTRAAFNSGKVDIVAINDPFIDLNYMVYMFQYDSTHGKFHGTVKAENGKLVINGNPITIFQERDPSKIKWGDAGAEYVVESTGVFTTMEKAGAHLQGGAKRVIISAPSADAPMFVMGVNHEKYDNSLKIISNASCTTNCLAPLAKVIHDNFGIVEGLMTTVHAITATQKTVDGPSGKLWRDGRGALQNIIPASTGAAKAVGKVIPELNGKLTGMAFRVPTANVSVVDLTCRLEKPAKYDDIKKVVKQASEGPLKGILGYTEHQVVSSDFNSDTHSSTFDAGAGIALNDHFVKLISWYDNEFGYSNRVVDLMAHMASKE

[7] = molecular target: T2, Alkaline phosphatase, tissue-nonspecific isozyme (Homo sapiens, UniProt P05186); assay: potency against alkaline phosphatase TNAP – biochemical, luminescent, dose response, SAR follow-up (AID 1056)
T2 sequence (P05186 whole entry): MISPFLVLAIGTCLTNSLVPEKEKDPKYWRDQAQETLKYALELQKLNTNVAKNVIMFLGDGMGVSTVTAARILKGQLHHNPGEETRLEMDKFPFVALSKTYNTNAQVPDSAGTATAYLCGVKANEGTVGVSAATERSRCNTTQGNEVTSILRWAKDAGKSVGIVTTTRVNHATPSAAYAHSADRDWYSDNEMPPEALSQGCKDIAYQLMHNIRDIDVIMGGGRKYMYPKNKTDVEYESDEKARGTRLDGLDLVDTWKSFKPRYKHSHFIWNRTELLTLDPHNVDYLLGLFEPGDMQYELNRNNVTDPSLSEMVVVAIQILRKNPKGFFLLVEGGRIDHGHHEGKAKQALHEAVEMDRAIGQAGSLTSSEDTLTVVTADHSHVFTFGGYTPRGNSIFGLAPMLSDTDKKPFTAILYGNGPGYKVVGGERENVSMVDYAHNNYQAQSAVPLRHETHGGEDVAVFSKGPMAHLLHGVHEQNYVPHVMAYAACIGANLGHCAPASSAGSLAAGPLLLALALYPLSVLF

[8] = molecular target: T3, Heat shock factor protein 1 (Mus musculus, UniProt P38532); assay: decrease of HSF1-responsive luciferase luminescence – cell-based, NIH3T3, dose retest, confirmation (AID 2382); assay type: functional;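 further: NIH3T3 fibroblasts with HSF1-driven luciferase reporter stressed by proteasome inhibitor MG132; luminescence from HSF1-driven luciferase expression after 8 hours of MG132 stress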
T3 sequence (P38532 whole entry): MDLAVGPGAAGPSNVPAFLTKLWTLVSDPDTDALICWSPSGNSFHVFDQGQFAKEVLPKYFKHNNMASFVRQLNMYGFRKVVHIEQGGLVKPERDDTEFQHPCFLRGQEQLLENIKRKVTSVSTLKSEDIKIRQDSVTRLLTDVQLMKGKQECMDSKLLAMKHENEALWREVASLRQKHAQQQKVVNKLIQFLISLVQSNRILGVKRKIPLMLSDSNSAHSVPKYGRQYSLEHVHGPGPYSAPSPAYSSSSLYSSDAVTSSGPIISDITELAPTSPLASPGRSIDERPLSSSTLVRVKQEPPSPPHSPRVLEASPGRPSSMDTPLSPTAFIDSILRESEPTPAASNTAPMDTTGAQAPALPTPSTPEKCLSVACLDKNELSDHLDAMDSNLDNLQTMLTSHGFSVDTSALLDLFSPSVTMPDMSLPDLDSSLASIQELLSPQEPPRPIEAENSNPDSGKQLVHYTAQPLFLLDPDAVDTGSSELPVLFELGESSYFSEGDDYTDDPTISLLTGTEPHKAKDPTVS

HEK293 = assay: EBV LMP1 TES2 canonical NF-kB signalling blockers – cell-based, HEK293, luciferase, cherry-pick, dose response (AID 588343); assay type: functional; settings: Homo sapiens
[9] = molecular target: Proto-oncogene tyrosine-protein kinase receptor Ret (Homo sapiens, UniProt P07949); assay type: functional;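 further: measured within a kinome-wide profiling panel, RET as the panel member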
Proto-oncogene tyrosine-protein kinase receptor Ret, sequence (P07949 whole entry): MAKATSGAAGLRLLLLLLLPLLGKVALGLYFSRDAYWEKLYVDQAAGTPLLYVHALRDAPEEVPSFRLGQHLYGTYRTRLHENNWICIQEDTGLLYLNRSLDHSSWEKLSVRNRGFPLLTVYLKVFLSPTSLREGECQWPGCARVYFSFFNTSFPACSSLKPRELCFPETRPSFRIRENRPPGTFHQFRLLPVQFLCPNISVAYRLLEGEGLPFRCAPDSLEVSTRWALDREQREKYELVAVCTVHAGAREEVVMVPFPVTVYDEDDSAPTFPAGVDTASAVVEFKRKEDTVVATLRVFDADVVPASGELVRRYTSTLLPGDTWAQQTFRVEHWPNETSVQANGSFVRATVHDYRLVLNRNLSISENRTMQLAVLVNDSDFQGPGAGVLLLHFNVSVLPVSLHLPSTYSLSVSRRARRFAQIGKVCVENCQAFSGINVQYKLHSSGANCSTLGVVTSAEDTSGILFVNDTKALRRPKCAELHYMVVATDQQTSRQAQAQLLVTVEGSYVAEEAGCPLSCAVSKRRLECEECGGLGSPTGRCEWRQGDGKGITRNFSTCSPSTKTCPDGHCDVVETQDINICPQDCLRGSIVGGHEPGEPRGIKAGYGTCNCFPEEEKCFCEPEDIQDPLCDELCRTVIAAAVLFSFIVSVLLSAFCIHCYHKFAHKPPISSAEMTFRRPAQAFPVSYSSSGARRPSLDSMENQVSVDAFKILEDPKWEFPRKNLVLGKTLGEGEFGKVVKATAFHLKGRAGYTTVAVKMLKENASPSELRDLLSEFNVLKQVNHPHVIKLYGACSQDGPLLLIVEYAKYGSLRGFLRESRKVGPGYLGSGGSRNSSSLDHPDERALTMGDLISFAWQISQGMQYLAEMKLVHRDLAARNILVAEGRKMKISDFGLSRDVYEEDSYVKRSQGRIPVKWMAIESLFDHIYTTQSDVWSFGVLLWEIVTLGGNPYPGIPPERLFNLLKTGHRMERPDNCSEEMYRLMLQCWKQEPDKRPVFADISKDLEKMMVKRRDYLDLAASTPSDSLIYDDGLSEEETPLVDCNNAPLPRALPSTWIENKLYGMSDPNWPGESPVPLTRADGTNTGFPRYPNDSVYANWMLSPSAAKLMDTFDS

Escherichia coli = assay: microbe, parasite or virus in culture

Melanin-concentrating hormone receptor 1, sequence (Q99705 whole entry): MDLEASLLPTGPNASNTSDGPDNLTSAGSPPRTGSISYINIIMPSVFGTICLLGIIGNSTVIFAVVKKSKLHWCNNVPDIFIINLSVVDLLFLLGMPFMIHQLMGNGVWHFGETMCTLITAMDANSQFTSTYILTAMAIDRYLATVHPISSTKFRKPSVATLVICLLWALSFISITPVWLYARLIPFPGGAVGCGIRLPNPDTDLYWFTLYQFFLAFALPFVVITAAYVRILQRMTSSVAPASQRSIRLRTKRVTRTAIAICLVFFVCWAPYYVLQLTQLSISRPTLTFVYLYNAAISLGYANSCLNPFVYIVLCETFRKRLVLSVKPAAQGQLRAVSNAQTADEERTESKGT

For `CCOc1ccc(Oc2c(Cl)cnn(Cc3cccc4ccccc34)c2=S)cc1`, the IC50 [1] was 1.51 µM (active) and the IC50 [2] was 1.51 µM (active).

For `COc1cccc(NC(=O)Nc2ccc3c(c2)N(C)C(=O)CS3)c1`, the AC50 [3] was 9.67 µM (active) and the AC50 [4] was 5.3 µM (active).

With `Nc1ccc(S(=O)(=O)O)c2cccc(O)c12` the Ki (Aurora kinase A) was 0.0794 µM (active) and the Ki (Aurora kinase B) was 0.251 µM (active).

For `O=C(COC(=O)CNS(=O)(=O)c1cccc(Br)c1)Nc1ccccc1Sc1ccccc1`, the IC50 (Melanocortin receptor 4) was 8.42 µM (active) and the IC50 [5] was > 64.6 µM (inactive).

For `Cc1cc(C)c2nc(-c3ccco3)cc(C(=O)O)c2c1`, the AC50 (Trypsin) was 10.9 µM (active) and the AC50 (CAAX prenyl protease 2) was 15.3 µM (active).

In the case of `COc1ccc2c(c1)CCc1c-2n[nH]c1C(=O)O`, the IC50 [6] was > 10 µM (inconclusive), the IC50 [7] was 3.71 µM (active) and the AC50 [3] was 16.9 µM (active). For the same molecule, the AC50 [4] was 7.28 µM (active).

For `Cc1ccc(-n2cc(C(=O)c3ccccc3O)cn2)cc1`, the EC50 [8] was < 0.16 µM (active) and the AC50 (HEK293) was 0.725 µM (active).

With `CC(SCC1CCC2CC1C2(C)C)C(N)=O` (stereo not drawn) the Ki [9] was 100 µM (active).

With `COc1ccccc1NS(=O)(=O)c1ccc2nc(S)oc2c1` the AC50 (Escherichia coli) was > 380 µM (inactive).
